Assay results from publication PMC6230509 (Neuropharmacology, 2018).

Legend:
D2 = D2 (Homo sapiens, UniProt P14416); test: NIMH PDSP radioligand competition binding, D2
α2C = biological target: T1, α2C (Homo sapiens, UniProt P18825); test: NIMH PDSP radioligand competition binding, α2C
T1 sequence (P18825 1-462): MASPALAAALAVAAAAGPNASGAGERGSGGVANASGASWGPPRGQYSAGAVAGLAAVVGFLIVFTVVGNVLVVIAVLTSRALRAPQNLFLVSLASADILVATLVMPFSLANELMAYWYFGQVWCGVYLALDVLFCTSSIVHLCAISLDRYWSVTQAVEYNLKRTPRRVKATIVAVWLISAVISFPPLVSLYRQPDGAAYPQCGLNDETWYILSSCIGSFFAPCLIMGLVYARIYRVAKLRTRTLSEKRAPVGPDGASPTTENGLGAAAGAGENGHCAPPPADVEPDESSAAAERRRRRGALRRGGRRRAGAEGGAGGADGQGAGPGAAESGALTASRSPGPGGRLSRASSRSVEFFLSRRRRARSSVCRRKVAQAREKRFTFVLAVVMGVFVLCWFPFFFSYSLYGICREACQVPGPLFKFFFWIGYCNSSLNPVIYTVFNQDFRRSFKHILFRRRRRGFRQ

D1 = D1 (Homo sapiens, UniProt P21728); test: NIMH PDSP radioligand competition binding, D1
α1D = biological target: T2, α1D (Homo sapiens, UniProt P25100); test: NIMH PDSP radioligand competition binding, α1D
T2 sequence (P25100 1-572): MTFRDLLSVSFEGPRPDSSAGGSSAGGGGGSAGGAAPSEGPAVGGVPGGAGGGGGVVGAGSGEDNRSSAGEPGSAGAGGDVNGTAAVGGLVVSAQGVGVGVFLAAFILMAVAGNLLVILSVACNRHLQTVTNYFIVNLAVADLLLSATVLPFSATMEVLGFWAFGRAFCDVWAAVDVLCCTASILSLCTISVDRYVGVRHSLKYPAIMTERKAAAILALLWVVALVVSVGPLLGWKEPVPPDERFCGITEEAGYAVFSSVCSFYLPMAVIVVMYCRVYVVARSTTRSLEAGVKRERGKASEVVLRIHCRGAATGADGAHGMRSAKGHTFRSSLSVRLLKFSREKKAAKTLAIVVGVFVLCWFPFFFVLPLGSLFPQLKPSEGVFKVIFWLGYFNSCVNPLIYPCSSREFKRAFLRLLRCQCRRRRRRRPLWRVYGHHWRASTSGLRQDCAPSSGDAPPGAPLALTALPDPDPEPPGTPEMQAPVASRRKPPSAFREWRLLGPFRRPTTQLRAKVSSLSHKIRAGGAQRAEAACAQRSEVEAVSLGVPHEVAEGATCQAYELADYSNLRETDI

σ1 = σ1 (Rattus norvegicus, UniProt Q9R0C9); test: NIMH PDSP radioligand competition binding, σ1
D4 = biological target: T3, D4 (Homo sapiens, UniProt P21917); test: NIMH PDSP radioligand competition binding, D4
T3 sequence (P21917 1-419): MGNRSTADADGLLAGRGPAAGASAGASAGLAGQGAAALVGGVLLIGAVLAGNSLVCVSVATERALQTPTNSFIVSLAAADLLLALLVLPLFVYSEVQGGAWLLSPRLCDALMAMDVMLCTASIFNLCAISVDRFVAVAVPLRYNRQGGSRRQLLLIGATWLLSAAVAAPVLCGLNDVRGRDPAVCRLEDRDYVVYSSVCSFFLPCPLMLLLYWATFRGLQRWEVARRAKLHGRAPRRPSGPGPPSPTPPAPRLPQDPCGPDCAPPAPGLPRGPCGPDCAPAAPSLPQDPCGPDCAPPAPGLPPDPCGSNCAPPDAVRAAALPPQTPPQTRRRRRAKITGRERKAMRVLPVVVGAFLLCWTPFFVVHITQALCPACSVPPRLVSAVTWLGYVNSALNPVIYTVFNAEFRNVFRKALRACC

5-HT2A = 5-HT2A (Homo sapiens, UniProt P28223); test: NIMH PDSP radioligand competition binding, 5-HT2A
[1] = biological target: norepinephrine transporter (NET) (Homo sapiens, UniProt P23975); test: NIMH PDSP radioligand competition binding, NET
5-HT2B = 5-HT2B (Homo sapiens, UniProt P41595); test: NIMH PDSP radioligand competition binding, 5-HT2B
α2A = biological target: T4, α2A (Homo sapiens, UniProt P08913); test: NIMH PDSP radioligand competition binding, α2A
T4 sequence (P08913 1-465): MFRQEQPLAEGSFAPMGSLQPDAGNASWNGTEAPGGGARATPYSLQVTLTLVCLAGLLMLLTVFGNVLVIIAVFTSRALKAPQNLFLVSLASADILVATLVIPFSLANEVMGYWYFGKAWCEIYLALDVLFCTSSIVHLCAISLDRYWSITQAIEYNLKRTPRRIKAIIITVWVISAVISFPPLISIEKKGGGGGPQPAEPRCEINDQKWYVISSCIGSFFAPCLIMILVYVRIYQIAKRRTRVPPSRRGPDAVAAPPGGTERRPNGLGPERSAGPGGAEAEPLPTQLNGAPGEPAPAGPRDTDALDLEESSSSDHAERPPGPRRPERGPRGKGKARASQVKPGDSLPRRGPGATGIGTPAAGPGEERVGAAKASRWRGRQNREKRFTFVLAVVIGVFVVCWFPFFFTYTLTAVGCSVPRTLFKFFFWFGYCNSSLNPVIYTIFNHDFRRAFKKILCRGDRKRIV

κ-opioid receptor (KOR) = κ-opioid receptor (KOR) (Homo sapiens, UniProt P41145); test: NIMH PDSP radioligand competition binding, KOR
[2] = biological target: dopamine transporter (DAT) (Homo sapiens, UniProt Q01959); test: NIMH PDSP radioligand competition binding, DAT
H2 = H2 (Homo sapiens, UniProt P25021); test: NIMH PDSP radioligand competition binding, H2
[3] = biological target: peripheral benzodiazepine receptor (PBR) (Rattus norvegicus, UniProt P16257); test: NIMH PDSP radioligand competition binding, PBR
[4] = biological target: serotonin transporter (SERT) (Homo sapiens, UniProt P31645); test: NIMH PDSP radioligand competition binding, SERT
[5] = Binding Affinity (Ki, nM), [3H]SCH23390, cloned human receptor
[6] = Binding Affinity (Ki, nM), [3H]N-methylspiperone, cloned human receptor
[7] = Binding Affinity (Ki, nM), [3H]tiotidine, cloned human receptor
[8] = Binding Affinity (Ki, nM), PBR, [3H]PK11195, rat kidney, natively expressed

Compound | Ki (D2) [nM] | Ki (α2C) [nM] | Ki (D1; [5]) [nM] | Ki (α1D) [nM] | Ki (σ1) [nM] | Ki (D4; [6]) [nM] | Ki (5-HT2A) [nM] | Ki [1] [nM] | Ki (5-HT2B) [nM] | Ki (α2A) [nM] | Ki (κ-opioid receptor (KOR)) [nM] | Ki [2] [nM] | Ki (H2; [7]) [nM] | Ki [3, 8] [nM] | Ki [4] [nM] | further results
C=CCN(CC=C)CCc1c(C)[nH]c2ccc(OC)cc12 [5-MeO-2-Me-DALT, 5-methoxy-2-methyl-N,N-diallyltryptamine] | > 10000 | 888 | > 10000 | 2410 | 427 | > 10000 | 1150 | > 10000 | 241 | 189 | 391 | 2410 | > 10000 | > 10000 | > 10000 | displacement at 10,000 nM ([4]; SERT, [3H]citalopram, at 10,000 nM): < 50%
C=CCN(CC=C)CCc1c(-c2ccccc2)[nH]c2ccccc12 [2-Ph-DALT, 2-phenyl-N,N-diallyltryptamine] | 388 | 159 | 2790 | 243 | > 10000 | 1000 | 13 | 420 | 192 | 85 | 589 | 746 | 367 | 1930 | > 10000 | Ki (D1; Ki value, bound stated): < 10000 nM; Ki (D4; Ki value, bound stated): < 10000 nM; 5-HT2A binding affinity, fold higher than the affinity of DALT (5-HT2A): 54 fold; 5-HT2A binding affinity, fold higher than the affinity of any other DALT derivative (5-HT2A; relative to any other DALT derivative): at least 10 fold; Ki (H2; Ki value, bound stated): < 10000 nM; Ki ([3]; Ki value, peripheral benzodiazepine receptors, bound stated): < 10000 nM
C=CCN(CC=C)CCc1c(C)[nH]c2ccc(F)cc12 [5-F-2-Me-DALT, 5-fluoro-2-methyl-N,N-diallyltryptamine] | 4420 | 184 | > 10000 | > 10000 | 531 | > 10000 | 655 | > 10000 | 17 | 53 | 580 | 2210 | > 10000 | > 10000 | 983 | SERT affinity, fold reduction by 2-methylation [4]: ~30 fold
C=CCN(CC=C)CCc1c[nH]c2c(CC)cccc12 [7-Et-DALT, 7-ethyl-N,N-diallyltryptamine] | > 10000 | 682 | > 10000 | > 10000 | 22 | > 10000 | 1520 | 1880 | 65 | 141 | 580 | 1730 | > 10000 | > 10000 | 795 | σ1 affinity, fold higher than the parent compound (σ1; relative to DALT): ~5 fold
C=CCN(CC=C)CCc1c[nH]c2cccc(O)c12 [4-HO-DALT, 4-hydroxy-N,N-diallyltryptamine] | > 10000 | > 10000 | > 10000 | > 10000 | 2760 | > 10000 | 652 | > 10000 | 2590 | 1210 | > 10000 | > 10000 | > 10000 | > 10000 | 5210 | –
C=CCN(CC=C)CCc1c[nH]c2cccc(OC(C)=O)c12 [4-AcO-DALT, 4-acetoxy-N,N-diallyltryptamine] | > 10000 | 748 | > 10000 | > 10000 | 299 | > 10000 | 565 | > 10000 | 63 | 342 | 5230 | > 10000 | > 10000 | > 10000 | 1090 | –
